Measured values taken from patent publication US20210130420A1, “RECOMBINANT BINDING PROTEINS TARGETING HER2 AND SERUM ALBUMIN, AND THEIR USES” (Molecular Partners AG, priority 2016, published 2021).
Values belong to the molecule of their own block, whether it stands above or below them.

Tests used:
BT474 cells = assay: BT474 cell proliferation, BrdU-labeling; assay type: cell-based, human; settings: for IC50: Homo sapiens, BT-474, compound alone or titrated on top of 2 nM Protein #21-His, read-out: cell proliferation inhibition constant IC50, BT474
Protocol: Protein #21-His and Protein #23-His, were expressed and purified as described in Example 1. Effects of the recombinant binding proteins on BT474 cell proliferation were determined by measuring DNA synthesis using BrdU-labeling (BrdU, Cell Proliferation ELISA, Roche). Briefly, 10000 BT474 cells were seeded per well in a 96 well plate in 100 ul complete medium and incubated for 24 hours. Recombinant binding proteins or controls were added for an additional 72 hours. BrdU for cell labeling was added for the last 24 hours. Labeled (proliferating) cells were detected according to the manufactures protocol. The data were analyzed using the GraphPad prism software, plotting log [c] on the x-axis against OD450-602 nm on the y-axis. Data were fitted using a non-linear regression fit (log(antagonist) vs. response—Variable slope (four parameters)) deriving IC50 values.
(§1) Protein #21 and Protein #21-His were expressed and purified as described in Example 1. Standard BrdU cell proliferation assays were performed, well-known to the person skilled in the art. Briefly, effects on cell proliferation of Protein #21-His, other compounds, or Protein #21-His in combination with other compounds, were determined by measuring DNA synthesis using BrdU-labeling (BrdU, Cell Proliferation ELISA, Roche). Briefly, 10000 cells were seeded per well in a 96 well plate in 100 μl complete medium and incubated for 24 hours. Protein #21-His and/or compounds were added for an additional 72 hours. BrdU for cell labeling was added for the last 24 hours. Labeled (proliferating) cells were detected according to the manufactures protocol. The data were analyzed using the Graph Pad prism software (log [c] vs. OD450-602 nm plot). Data were fitted using a non-linear regression fit (log(antagonist) vs. response—variable slope (four parameters)).

MDA-MB175 cells = assay: MDA-MB175 cell proliferation, BrdU-labeling; assay type: cell-based; settings: for IC50: compound alone or titrated on top of 4 nM Protein #21-His, read-out: cell proliferation inhibition constant IC50, MDA-MB175
Protocol: as §1

[1] = Pharmacokinetic analysis in cynomolgus monkey; assay type: in vivo; settings: 1 mg/kg, intravenous infusion
Protocol: The measurements shown in this example are the result of a half-life engineering effort as described in Example 11. Protein #21-His, Protein #23-His, and Protein #24-His were expressed and purified as described in Example 1. The pharmacokinetic properties of the proteins were assessed in cynomolgus monkey. Proteins were administered via intravenous infusion for 30 min at a target dose level of between 1 mg/kg to cynomolgus monkeys. Blood samples were collected pre-dose and again at selected time points, for example 5 min, 10 min, 0.5 hours, 1 hour, 2 hours, 4 hours, 8 hours, 12 hours, 24 hours, 48 hours, 72 hours, 96 hours, 120 hours, 144 hours, 168 hours, 192 hours, 216 hours, and 240 hours post-end of infusion (i.e. post-injection). The blood samples were allowed to stand at room temperature and were centrifuged to generate serum, followed by storage at −80° C. pending analyses. Pharmacokinetic parameters were determined using procedures well known to the person skilled in the art. Serum concentrations of proteins were determined by sandwich ELISA using a rabbit monoclonal anti-designed ankyrin repeat domain antibody as capture reagent and murine monoclonal anti-designed ankyrin repeat domain antibody as detection reagent, and using a standard curve. Pharmacokinetic parameters were determined using standard software such as Phoenix WinNonLin (Certara, Princeton, USA) or Graph Pad Prism (GraphPad Software, La Jolla, USA) and standard analyses such as non-compartmental analyses. […] Target mediated clearance is well-known to the person skilled in the art and is known from e.g. antibodies targeting HER2.
Similarly, Protein #21-His was expressed and purified as described in Example 1. The pharmacokinetic properties of the proteins were assessed in cynomolgus monkey as described above at 1 mg/kg, 5 mg/kg and 10 mg/kg.
Similar results are observed when testing Protein #21 (expressed and purified as described in Example 1). The pharmacokinetic properties of the proteins are assessed in cynomolgus monkey as described above at 1 mg/kg, 10 mg/kg and 100 mg/kg. Pharmacokinetic parameters are evaluated as described above.
(§2) For the studies in this example Protein #21-His, Protein #24-His, Protein #28-His, Protein #29-His, and Protein #30-His were prepared according to Example 1. Protein #28-His was additionally PEGylated using a 40 kDa PEG moiety (NOF Sunbright GL2-400MA) by maleimid coupling of the PEG-moiety onto the free C-terminal cysteine of Protein #28-His, followed by purification to homogeneity using standard purification methods, procedures well known to the person skilled in the art. Pharmacokinetic analyses in mouse or cynomolgus monkey were performed as described in Examples 8 and 9.

[2] = Pharmacokinetic analysis in mouse; assay type: in vivo
Protocol: The measurements shown in this example are the result of a half-life engineering effort as described in Example 11. Protein #21-His and Protein #23-His were expressed and purified as described in Example 1. The pharmacokinetic properties of the His-tagged proteins were assessed in mouse as described elsewhere (Zahnd, C., Kawe, M., Stumpp, M. T., de Pasquale, C., Tamaskovic, R., Nagy-Davidescu, G., Dreier, B., Schibli, R., Binz, H. K., Waibel, R., Plückthun, A., Cancer Res. 70, 1595-1605, 2010). […] Having SEQ ID NO: 16 present in the recombinant binding protein thus appears to be more favorable than having SEQ ID NO: 18 present.
Polypeptide linkers that link protein domains are well-known to the person skilled in the art. Gly-Ser-rich linkers are well-known from single-chain Fv antibody fragments, where they have proven to be most appropriate to link the two Fv polypeptide chains. […] Protein #26-His and Protein #27-His, were expressed and purified as described in Example 1. Pharmacokinetic analyses in mouse were performed as described in Example 8.
as §2

[3] = Storage stability in PBS analysed by size-exclusion chromatography; assay type: physicochemical; settings: 10 mg/ml in PBS, 1 month at −80° C.
Protocol: A storage stability improvement is also observed, when testing the storage stability of Protein #21 and Protein #22 (recombinant binding proteins consisting of the amino acid sequences corresponding to SEQ ID NOs: 21 and 22, respectively). Protein #21 and Protein #22 are prepared as described in Example 1, samples are concentrated to 10 mg/ml in PBS and stored for 1 month at −80° C. in or at 40° C. in glass vials, followed by analysis on standard size-exclusion chromatography.

IC50 (MDA-MB175 cells): 104 nM
Molecule: C=C1C[C@@H]2CC[C@@]34C[C@H]5O[C@H]6[C@@H](O3)[C@H]3O[C@H](CC[C@@H]3O[C@H]6[C@H]5O4)CC(=O)C[C@@H]3[C@@H](OC)[C@@H](C[C@H](O)CN)O[C@H]3C[C@H]3O[C@@H](CC[C@@H]1O2)C[C@@H](C)C3=C [Eribulin]
inhibition of BT474 cell proliferation, in words (BT474 cells; single agent or on top of suboptimal Protein #21-His (2 nM) or Protein #21 (1 nM)): not active
inhibition of MDA-MB175 cell proliferation, in words (MDA-MB175 cells; single agent or on top of suboptimal Protein #21-His (4 nM) or Protein #21 (10 nM)): very low potency

IC50 (MDA-MB175 cells): 263000 nM
Molecule: CO[C@H]1C[C@@H]2CC[C@@H](C)[C@@](O)(O2)C(=O)C(=O)N2CCCC[C@H]2C(=O)O[C@H]([C@H](C)C[C@@H]2CC[C@@H](OCCO)[C@H](OC)C2)CC(=O)[C@H](C)/C=C(\C)[C@@H](O)[C@@H](OC)C(=O)[C@H](C)C[C@H](C)/C=C/C=C/C=C/1C [Everolimus]

IC50 (BT474 cells): 176 nM
IC50 (MDA-MB175 cells): 203 nM
Molecule: CS(=O)(=O)N1CCN(Cc2cc3nc(-c4cccc5[nH]ncc45)nc(N4CCOCC4)c3s2)CC1 [GDC-0941]

IC50 (BT474 cells): 765 nM
IC50 (MDA-MB175 cells): 2810 nM
Molecule: CS(=O)(=O)CCNCc1ccc(-c2ccc3ncnc(Nc4ccc(OCc5cccc(F)c5)c(Cl)c4)c3c2)o1 [Lapatinib]

B1: Protein #24-His: SEQ ID NO: 24 with a His-tag (SEQ ID NO: 1) fused to its N terminus (protein)
chain: MRGSHHHHHHGSDLGKKLLEAARAGQDDEVRELLKAGADVNAKDYFSHTPLHLAARNGHLKIVEVLLKAGADVNAKDFAGKTPLHLAANEGHLEIVEVLLKAGADVNAQDIFGKTPADIAADAGHEDIAEVLQKAAGSPTPTPTTPTPTPTTPTPTPTGSDLGKKLLEAARAGQDDEVRELLKAGADVNAKDYFSHTPLHLAARNGHLKIVEVLLKAGADVNAKDFAGKTPLHLAANEGHLEIVEVLLKAGADVNAQDIFGKTPADIAADAGHEDIAEVLQKAAGSPTPTPTTPTPTPTTPTPTPTGSDLGIKLLFAAAKGQDDEVRELLKAGADVNAKDFQGVTPLHIAAQSGHLEIVEVLLKAGADVNAKDVTGDTPLHLAAQHGHLEIVEVLLKAGADVNAQDERGWTPADLAADWGHEDIAEVLQKAAGSPTPTPTTPTPTPTTPTPTPTGSDLGKKLLEAARAGQDDEVRELLKAGADVNAKDEYGLTPLYLATAHGHLEIVEVLLKAGADVNAVDAIGFTPLHLAAFIGHLEIAEVLLKAGADVNAQDKFGKTPADIAAGAGNEDIAEVLQKAA
modifications: His-tag; Protein comprising four designed ankyrin repeat domains
terminal half-life [1]: 45 h

IC50 higher than that of Protein #21-His (BT474 cells; BT474 proliferation): 60%
B2: Protein #23-His: SEQ ID NO: 23 with a His-tag (SEQ ID NO: 1) fused to its N terminus (protein)
chain: MRGSHHHHHHGSDLGKKLLEAARAGQDDEVRELLKAGADVNAKDYFSHTPLHLAARNGHLKIVEVLLKAGADVNAKDFAGKTPLHLAANEGHLEIVEVLLKAGADVNAQDIFGKTPADIAADAGHEDIAEVLQKAAGSPTPTPTTPTPTPTTPTPTPTGSDLGVKLLWAAARGQDDEVRELLKAGADVNAKDFQGITPLHIAATNGHLEIVEVLLKAGADVNAKDITGETPLHHAADSGHLEIVEVLLKAGADVNAQDKAGVTPADLAAAWGHEDIAEVLQKAAGSPTPTPTTPTPTPTTPTPTPTGSDLGKKLLEAARAGQDDEVRELLKAGADVNAKDEYGLTPLYLATAHGHLEIVEVLLKAGADVNAVDAIGFTPLHLAAFIGHLEIAEVLLKAGADVNAQDKFGKTPADIAAGAGNEDIAEVLQKAAGSPTPTPTTPTPTPTTPTPTPTGSDLGKKLLEAARAGQDDEVRELLKAGADVNAKDYFSHTPLHLAARNGHLKIVEVLLKAGADVNAKDFAGKTPLHLAANEGHLEIVEVLLKAGADVNAQDIFGKTPADIAADAGHEDIAEVLQKAA
modifications: His-tag; Protein comprising four designed ankyrin repeat domains
% ID remaining after 48 hours [2]: 6.5 % ID
terminal half-life [2]: 24.7 h
terminal half-life [1]: 35 h

B3: Protein #22: SEQ ID NO: 22; corresponding recombinant binding protein with serum albumin binding domains of SEQ ID NO: 13 (protein)
chain: GSDLGKKLLEAARAGQDDEVRELLKAGADVNAKDYFSHTPLHLAARNGHLKIVEVLLKAGADVNAKDFAGKTPLHLAANDGHLEIVEVLLKAGADVNAQDIFGKTPADIAADAGHEDIAEVLQKAAGSPTPTPTTPTPTPTTPTPTPTGSDLGIKLLFAAAKGQDDEVRELLKAGADVNAKDFQGVTPLHIAAQSGHLEIVEVLLKAGADVNAKDVTGDTPLHLAAQHGHLEIVEVLLKAGADVNAQDERGWTPADLAADWGHEDIAEVLQKAAGSPTPTPTTPTPTPTTPTPTPTGSDLGKKLLEAARAGQDDEVRELLKAGADVNAKDEYGLTPLYLATAHGHLEIVEVLLKAGADVNAVDAIGFTPLHLAAFIGHLEIAEVLLKAGADVNAQDKFGKTPADIAAGAGNEDIAEVLQKAAGSPTPTPTTPTPTPTTPTPTPTGSDLGKKLLEAARAGQDDEVRELLKAGADVNAKDYFSHTPLHLAARNGHLKIVEVLLKAGADVNAKDFAGKTPLHLAANDGHLEIVEVLLKAGADVNAQDIFGKTPADIAADAGHEDIAEVLQKAA
modifications: Protein comprising four designed ankyrin repeat domains
elution profiles upon storage at −80° C. [3]: equivalent elution profiles
